System: NOMO1
Assay: cell viability relative to DMSO control; higher = less cytotoxic
Settings: 48 h
Method in brief: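 In 1536-well plates, 5 μl of leukemia cells were seeded per well: 500 cells/well for NOMO1 or SEM and 1000 cells/well for P12-Ichikawa. Each line had first been adapted for at least four passages in each medium. Library compounds in DMSO were pin-dosed at 11 threefold concentrations between 47 μM and 0.79 nM, and CellTiter-Glo One luminescence was read after 48 h at 37°C. Viability is a per-plate percentage relative to DMSO wells, with cell-free wells as background.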

[1] = HPLM + 10% dialyzed FBS, 0.000781 µM
[2] = HPLM + 10% dialyzed FBS, 0.00234 µM
[3] = HPLM + 10% dialyzed FBS, 0.00702 µM
[4] = HPLM + 10% dialyzed FBS, 0.0211 µM
[5] = HPLM + 10% dialyzed FBS, 0.0632 µM
[6] = HPLM + 10% dialyzed FBS, 0.19 µM
[7] = HPLM + 10% dialyzed FBS, 0.569 µM
[8] = HPLM + 10% dialyzed FBS, 1.71 µM
[9] = HPLM + 10% dialyzed FBS, 5.12 µM
[10] = HPLM + 10% dialyzed FBS, 15.4 µM
[11] = HPLM + 10% dialyzed FBS, 46.1 µM
[12] = RPMI 5 mM glucose + 10% FBS, 0.000781 µM
[13] = RPMI 5 mM glucose + 10% FBS, 0.00234 µM
[14] = RPMI 5 mM glucose + 10% FBS, 0.00702 µM
[15] = RPMI 5 mM glucose + 10% FBS, 0.0211 µM
[16] = RPMI 5 mM glucose + 10% FBS, 0.0632 µM
[17] = RPMI 5 mM glucose + 10% FBS, 0.19 µM
[18] = RPMI 5 mM glucose + 10% FBS, 0.569 µM
[19] = RPMI 5 mM glucose + 10% FBS, 1.71 µM
[20] = RPMI 5 mM glucose + 10% FBS, 5.12 µM
[21] = RPMI 5 mM glucose + 10% FBS, 15.4 µM
[22] = RPMI 5 mM glucose + 10% FBS, 46.1 µM
[23] = RPMI 5 mM glucose + 10% dialyzed FBS, 0.000781 µM
[24] = RPMI 5 mM glucose + 10% dialyzed FBS, 0.00234 µM
[25] = RPMI 5 mM glucose + 10% dialyzed FBS, 0.00702 µM
[26] = RPMI 5 mM glucose + 10% dialyzed FBS, 0.0211 µM
[27] = RPMI 5 mM glucose + 10% dialyzed FBS, 0.0632 µM
[28] = RPMI 5 mM glucose + 10% dialyzed FBS, 0.19 µM
[29] = RPMI 5 mM glucose + 10% dialyzed FBS, 0.569 µM
[30] = RPMI 5 mM glucose + 10% dialyzed FBS, 1.71 µM
[31] = RPMI 5 mM glucose + 10% dialyzed FBS, 5.12 µM
[32] = RPMI 5 mM glucose + 10% dialyzed FBS, 15.4 µM
[33] = RPMI 5 mM glucose + 10% dialyzed FBS, 46.1 µM

Compound	cell viability [1] [%]	cell viability [2] [%]	cell viability [3] [%]	cell viability [4] [%]	cell viability [5] [%]	cell viability [6] [%]	cell viability [7] [%]	cell viability [8] [%]	cell viability [9] [%]	cell viability [10] [%]	cell viability [11] [%]	cell viability [12] [%]	cell viability [13] [%]	cell viability [14] [%]	cell viability [15] [%]	cell viability [16] [%]	cell viability [17] [%]	cell viability [18] [%]	cell viability [19] [%]	cell viability [20] [%]	cell viability [21] [%]	cell viability [22] [%]	cell viability [23] [%]	cell viability [24] [%]	cell viability [25] [%]	cell viability [26] [%]	cell viability [27] [%]	cell viability [28] [%]	cell viability [29] [%]	cell viability [30] [%]	cell viability [31] [%]	cell viability [32] [%]	cell viability [33] [%]
CC(NCCc1ccc(O)cc1)C(O)c1ccc(O)cc1 (stereo unspecified)	124	123	121	111	124	120	127	110	118	97.5	80	113	106	107	113	102	96.2	101	104	105	94.8	95	93.4	114	109	99.7	110	114	102	93.8	91.3	93.5	77.3
O.O.CCN1CCN(C(=O)N[C@H](C(=O)N[C@H]2[C@@H]3SC\C(=C(/N3C2=O)C(O)=O)CSC4=NN=N[N]4C)C5=CC=C(O)C=C5)C(=O)C1=O	77.3	86.9	106	29.4	106	98.8	110	104	101	89.8	115	81.4	93.8	88.5	19.5	95.2	100	111	109	101	111	113	77.5	92.9	93.5	32	100	96.1	100	101	92.4	102	107
C[C@@H](O)[C@@H]1NC(=O)[C@H](CCCCN)NC(=O)[C@@H](Cc2c[nH]c3ccccc23)NC(=O)[C@H](Cc2ccccc2)NC(=O)[C@@H](NC(=O)[C@H](N)Cc2ccccc2)CSSC[C@@H](C(=O)N[C@H](CO)[C@@H](C)O)NC1=O	75.7	75	90	88.1	103	83.6	91.8	82.5	74.2	81.8	75.9	74.6	79.4	83.1	79.3	83.3	81.6	84.5	76.8	80.7	81.1	83.5	86.9	89	87	92.2	93.6	85.3	101	92.5	91.2	103	112
CC(O)C1C2C(C)\C(=C(/N2C1=O)C(O)=O)SC3CNC(C3)C(=O)N(C)C (stereo unspecified)	75.7	78.3	85.5	94.8	99	82.5	87.7	97.5	82.8	81.7	88.7	86.1	84.1	85.2	89.1	81.7	84.4	82.5	81.6	82.8	88.4	86.3	68.1	73.9	72.6	84.1	84.2	86.2	85.6	88.4	82.6	91.5	91
CNC(=O)[C@H](CC/1=C/N=C\2/C=C\C\C=C12)NC(=O)[C@H](CC(C)C)CC(=O)NO	108	102	113	111	120	124	123	88.3	78.6	25.4	25.6	99.5	109	89.2	102	113	103	97	97.3	97.4	11.9	14.1	114	124	112	111	120	113	109	113	112	21.1	22.5
CNC(=O)C1=CC=C(C)C(=C1)N2C(=C/C(=C(/Br)C2=O)OCC3=C(F)C=C(F)C=C3)\C	–	–	–	–	–	–	–	–	–	–	–	114	128	122	127	127	151	139	137	136	145	130	–	–	–	–	–	–	–	–	–	–	–
CC[C@]1(O)C[C@@H]2CN(CCc3c([nH]c4ccccc34)[C@@](C(=O)OC)(c3cc4c(cc3OC)N(C)[C@H]3[C@@](O)(C(N)=O)[C@H](O)[C@]5(CC)C=CCN6CC[C@]43[C@@H]65)C2)C1	–	–	–	–	–	–	–	–	–	–	–	110	113	132	103	96.4	25.3	21.1	25.8	21.4	22.8	21	116	114	106	122	121	44.6	24.6	28.2	24.2	23.6	20.7
COc1ccc2cc1Oc1ccc(cc1)C[C@H]1c3cc(c(OC)cc3CCN1C)Oc1c(OC)c(OC)cc3c1[C@H](C2)N(C)CC3	–	–	–	–	–	–	–	–	–	–	–	109	110	132	111	111	116	117	107	98.3	99.8	85.1	107	120	121	118	113	119	111	108	103	98.7	86.8
OCc1ccc(-c2ccc(-c3ccc(CO)s3)o2)s1	124	121	138	147	124	114	122	107	118	108	96.2	–	–	–	–	–	–	–	–	–	–	–	–	–	–	–	–	–	–	–	–	–	–
